Data reported in patent US20260125382A1, “COMPOUNDS FOR INHIBITING OR DEGRADING CDK2 AND/OR CDK9 AND MEDICINAL USE THEREOF” (KOREA RESEARCH INSTITUTE OF CHEMICAL TECHNOLOGY, priority 2022, published 2026).

Tests used:
CDK2 = biological target: T1, CDK2 (Homo sapiens, UniProt P24941); experiment: CDK protein degradation activity (Western blotting), CDK2; assay type: cell-based; conditions: MDA-MB-231 cells, 16 hours, Western blot
T1 construct: endogenous in cells; host or cells: MDA-MB-231
Procedure, shortened: (§1)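 Protein levels were read by Western blot densitometry, tubulin serving as loading reference. Beforehand, MDA-MB-231 cells had been exposed for 16 hours to 100 nM, 1 μM or 10 μM compound, DMSO as control.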

CDK9 = biological target: T2, CDK9 (Homo sapiens, UniProt P50750); experiment: CDK protein degradation activity (Western blotting), CDK9; assay type: cell-based; conditions: MDA-MB-231 cells, 16 hours, Western blot
T2 construct: endogenous in cells; host or cells: MDA-MB-231
T2 sequence (P50750 whole entry): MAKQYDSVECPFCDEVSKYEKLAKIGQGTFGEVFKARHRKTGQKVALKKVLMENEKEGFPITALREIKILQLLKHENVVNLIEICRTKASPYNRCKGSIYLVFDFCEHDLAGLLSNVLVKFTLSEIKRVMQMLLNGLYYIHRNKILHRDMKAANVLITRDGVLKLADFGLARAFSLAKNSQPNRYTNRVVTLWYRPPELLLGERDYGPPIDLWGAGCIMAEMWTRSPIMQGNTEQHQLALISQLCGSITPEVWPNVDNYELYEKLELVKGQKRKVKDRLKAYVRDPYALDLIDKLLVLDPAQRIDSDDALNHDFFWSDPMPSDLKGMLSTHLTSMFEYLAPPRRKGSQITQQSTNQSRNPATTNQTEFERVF
Procedure, shortened: as §1

Row | Structure (SMILES) | Enzyme degradation CDK2 (% remaining) @ 0.1 μM (CDK2) | Enzyme degradation CDK2 (% remaining) @ 1 μM (CDK2) | Enzyme degradation CDK2 (% remaining) @ 10 μM (CDK2) | Enzyme degradation CDK9 (% remaining) @ 0.1 μM (CDK9) | Enzyme degradation CDK9 (% remaining) @ 1 μM (CDK9) | Enzyme degradation CDK9 (% remaining) @ 10 μM (CDK9)
1 | O=C1CC[C@H](N2C(=O)c3ccc(NCC(=O)N4CCC(OCCN5CCN(c6ccc(Nc7ncnc8c7ncn8[C@H]7C[C@@H](NC(=O)Cc8ccccc8)C7)cc6)CC5)CC4)cc3C2=O)C(=O)N1 [Compound 248, N-((1s,3s)-3-(6-((4-(4-(2-((1-((2-(2,6-dioxopiperidin-3-yl)-1,3-dioxoisoindolin-5-yl)glycyl)piperidin-4-yl)oxy)ethyl)piperazin-1-yl)phenyl)amino)-9H-purin-9-yl)cyclobutyl)-2-phenylacetamide] | 50/50/50% | 50/50/50% | 50/50/50% | 50% | 20% | 0%
2 | O=C1CC[C@@H](c2ccc(OCC(=O)N3CCC(OCCN4CCN(c5ccc(Nc6ncnc7c6ncn7C6CC(NC(=O)Cc7ccccc7)C6)cc5)CC4)CC3)cc2)C(=O)N1 (some centres unmarked) [Compound 250, N-((1s,3s)-3-(6-((4-(4-(2-((1-(2-(4-(2,6-dioxopiperidin-3-yl)phenoxy)acetyl)piperidin-4-yl)oxy)ethyl)piperazin-1-yl)phenyl)amino)-9H-purin-9-yl)cyclobutyl)-2-phenylacetamide] | 60% | 40% | 30% | 40% | 10% | 0%
3 | O=C1CC[C@@H](c2cccc(OCC(=O)N3CCC(OCCN4CCN(c5ccc(Nc6ncnc7c6ncn7C6CC(NC(=O)Cc7ccccc7)C6)cc5)CC4)CC3)c2)C(=O)N1 (some centres unmarked) [Compound 251, N-((1s,3s)-3-(6-((4-(4-(2-((1-(2-(3-(2,6-dioxopiperidin-3-yl)phenoxy)acetyl)piperidin-4-yl)oxy)ethyl)piperazin-1-yl)phenyl)amino)-9H-purin-9-yl)cyclobutyl)-2-phenylacetamide] | 0/0/0% | 0/0/0% | 0/0/0% | 30% | 0% | 0%
4 | O=C1CCC(N2C(=O)c3ccc(N4CCC(OCCN5CCN(c6ccc(Nc7ncnc8c7ncn8[C@H]7C[C@@H](NC(=O)Cc8ccccc8)C7)cc6)CC5)CC4)cc3C2=O)C(=O)N1 (some centres unmarked) [Compound 252, N-((1s,3s)-3-(6-((4-(4-(2-((1-(2-(2,6-dioxopiperidin-3-yl)-1,3-dioxoisoindolin-5-yl)piperidin-4-yl)oxy)ethyl)piperazin-1-yl)phenyl)amino)-9H-purin-9-yl)cyclobutyl)-2-phenylacetamide] | 30% | 30% | 50% | 60/60/60% | 60/60/60% | 60/60/60%
5 | O=C1CC[C@H](N2C(=O)c3cccc(NCC(=O)N4CCC(CCCN5CCN(c6ccc(Nc7ncnc8c7ncn8[C@H]7C[C@@H](NC(=O)Cc8ccccc8)C7)cc6)CC5)CC4)c3C2=O)C(=O)N1 [Compound 253, N-((1s,3s)-3-(6-((4-(4-(3-(1-((2-(2,6-dioxopiperidin-3-yl)-1,3-dioxoisoindolin-4-yl)glycyl)piperidin-4-yl)propyl)piperazin-1-yl)phenyl)amino)-9H-purin-9-yl)cyclobutyl)-2-phenylacetamide] | 20/—/20% |  | 20/—/20% | 0/0/0% | 0/0/0% | 0/0/0%
6 | O=C1CCC(N2C(=O)c3cccc(OCC(=O)N4CCC(CCCN5CCN(c6ccc(Nc7ncnc8c7ncn8[C@H]7C[C@@H](NC(=O)Cc8ccccc8)C7)cc6)CC5)CC4)c3C2=O)C(=O)N1 (some centres unmarked) [Compound 254, N-((1s,3s)-3-(6-((4-(4-(3-(1-(2-((2-(2,6-dioxopiperidin-3-yl)-1,3-dioxoisoindolin-4-yl)oxy)acetyl)piperidin-4-yl)propyl)piperazin-1-yl)phenyl)amino)-9H-purin-9-yl)cyclobutyl)-2-phenylacetamide] | 50% | 30% | 20% | 50% | 20% | 0%

The next lines start with the values.

Row | Enzyme degradation CDK2 (% remaining) @ 0.1 μM (CDK2) | Enzyme degradation CDK2 (% remaining) @ 1 μM (CDK2) | Enzyme degradation CDK2 (% remaining) @ 10 μM (CDK2) | Enzyme degradation CDK9 (% remaining) @ 0.1 μM (CDK9) | Enzyme degradation CDK9 (% remaining) @ 1 μM (CDK9) | Enzyme degradation CDK9 (% remaining) @ 10 μM (CDK9) | Structure (SMILES)
7 | 40% | 30% | 30% | 60% | 10% | 0% | O=C1CC[C@H](N2C(=O)c3ccc(OCC(=O)N4CCC(CCCN5CCN(c6ccc(Nc7ncnc8c7ncn8[C@H]7C[C@@H](NC(=O)Cc8ccccc8)C7)cc6)CC5)CC4)cc3C2=O)C(=O)N1 [Compound 256, N-((1s,3s)-3-(6-((4-(4-(3-(1-(2-((2-(2,6-dioxopiperidin-3-yl)-1,3-dioxoisoindolin-5-yl)oxy)acetyl)piperidin-4-yl)propyl)piperazin-1-yl)phenyl)amino)-9H-purin-9-yl)cyclobutyl)-2-phenylacetamide]
8 | 0% | 20% | 20% | 80% | 50% | 50% | COc1ccc(C(=O)N2CCC(CCCN3CCN(c4ccc(Nc5ncnc6c5ncn6[C@H]5C[C@@H](NC(=O)Cc6ccccc6)C5)cc4)CC3)CC2)cc1N1CCC(=O)NC1=O [Compound 257, N-((1s,3s)-3-(6-((4-(4-(3-(1-(3-(2,4-dioxotetrahydropyrimidin-1(2H)-yl)-4-methoxybenzoyl)piperidin-4-yl)propyl)piperazin-1-yl)phenyl)amino)-9H-purin-9-yl)cyclobutyl)-2-phenylacetamide]
9 | 20/20/20% | 20/20/20% | 20/20/20% | 20% | 0% | 0% | O=C1CC[C@@H](c2ccc(OCC(=O)N3CCC(CCCN4CCN(c5ccc(Nc6ncnc7c6ncn7[C@H]6C[C@@H](NC(=O)Cc7ccccc7)C6)cc5)CC4)CC3)cc2)C(=O)N1 [Compound 258, N-((1s,3s)-3-(6-((4-(4-(3-(1-(2-(4-(2,6-dioxopiperidin-3-yl)phenoxy)acetyl)piperidin-4-yl)propyl)piperazin-1-yl)phenyl)amino)-9H-purin-9-yl)cyclobutyl)-2-phenylacetamide]
10 | 0/0/0% | 0/0/0% | 0/0/0% | 0/0/0% | 0/0/0% | 0/0/0% | O=C1CC[C@@H](c2cccc(OCC(=O)N3CCC(CCCN4CCN(c5ccc(Nc6ncnc7c6ncn7C6CC(NC(=O)Cc7ccccc7)C6)cc5)CC4)CC3)c2)C(=O)N1 (some centres unmarked) [Compound 259, N-((1s,3s)-3-(6-((4-(4-(3-(1-(2-(3-(2,6-dioxopiperidin-3-yl)phenoxy)acetyl)piperidin-4-yl)propyl)piperazin-1-yl)phenyl)amino)-9H-purin-9-yl)cyclobutyl)-2-phenylacetamide]
11 | 20/20/20% | 20/20/20% | 20/20/20% | 60/60/60% | 60/60/60% | 60/60/60% | O=C1CCC(N2C(=O)c3cccc(N4CCC(OCCN5CCN(c6ccc(Nc7ncnc8c7ncn8[C@H]7C[C@@H](NC(=O)Cc8ccccc8)C7)cc6)CC5)CC4)c3C2=O)C(=O)N1 (some centres unmarked) [Compound 260, N-((1s,3s)-3-(6-((4-(4-(2-((1-(2-(2,6-dioxopiperidin-3-yl)-1,3-dioxoisoindolin-4-yl)piperidin-4-yl)oxy)ethyl)piperazin-1-yl)phenyl)amino)-9H-purin-9-yl)cyclobutyl)-2-phenylacetamide]
12 | 70% | 90% | 100% | 60% | 30% | 20% | O=C1CC[C@H](N2C(=O)c3cccc(N4CCC(CCCN5CCN(c6ccc(Nc7ncnc8c7ncn8[C@H]7C[C@@H](NC(=O)Cc8ccccc8)C7)cc6)CC5)CC4)c3C2=O)C(=O)N1 [Compound 261, N-((1s,3s)-3-(6-((4-(4-(3-(1-(2-(2,6-dioxopiperidin-3-yl)-1,3-dioxoisoindolin-4-yl)piperidin-4-yl)propyl)piperazin-1-yl)phenyl)amino)-9H-purin-9-yl)cyclobutyl)-2-phenylacetamide]
13 | 70% | 90% | 100% | 40% | 30% | 10% | O=C1CC[C@H](N2C(=O)c3ccc(N4CCC(CCCN5CCN(c6ccc(Nc7ncnc8c7ncn8C7CC(NC(=O)Cc8ccccc8)C7)cc6)CC5)CC4)cc3C2=O)C(=O)N1 (some centres unmarked) [Compound 262, N-((1s,3s)-3-(6-((4-(4-(3-(1-(2-(2,6-dioxopiperidin-3-yl)-1,3-dioxoisoindolin-5-yl)piperidin-4-yl)propyl)piperazin-1-yl)phenyl)amino)-9H-purin-9-yl)cyclobutyl)-2-phenylacetamide]
